Test results reported in patent publication US10759754B2, “Aminobenzoic acid derivatives for use as anti-inflammatory agents, anti-metastatic agents and/or anticancer agents” (3R VALO, S.E.C., priority 2016, dated 2020).
“Also recorded” adds a separate entry of the source.

What was measured:
[1] = system: STAT3; assay: Western blot of phosphorylated STAT3 in IL6-activated human macrophages; format: cell-based; conditions: human macrophages pretreated 30 min at 10 and 50 μM; 30 min activation with 25 ng/mL IL6
Protocol: Cell signaling studies: THP1-derived human macrophages (750×10^3 cells/mL) and MB49-I cells (500×10^3 cells/mL) were pretreated for 30 min with vehicle (DMSO), compounds 4 and 5, at 10, 25 or 50 μM; and then washed and recovered immediately (t=0 min) or after 30 min of activation with 50 U/mL IFNγ, 25 ng/mL IL6, or 10 ng/mL TNFα. Cell lysates were prepared and analyzed by immunoblotting as described.^21-23,25 Briefly, protein samples were resolved by SDS-PAGE under reducing conditions and transferred onto a PVDF membrane. Blots were first probed with rabbit polyclonal antibodies against phospho-STAT1 (pSTAT1), pSTAT3, or p-IκB (all at 1:2000) overnight at 4° C. Blots were then incubated with HRP-conjugated goat anti-rabbit IgG Ab (1:3000) for 1 h at room temperature. The same blots were stripped and then probed with anti-STAT1 or anti-STAT3 Abs (both at 1:1000). In both cases, probed molecules were visualized using an enhancement chemiluminescence detection kit (Thermo Fisher Scientific).

[2] = system: CD40; assay: Flow cytometry of CD40 surface antigen in IFNγ-activated human macrophages; format: cell-based; conditions: compound 4 at 10 μM, compound 5 at 25 μM
Protocol: Surface antigen expression analysis. To study membrane receptor expression, THP1-derived human macrophages (750×10^4 cells/mL) were pretreated for 3 h with DMSO or compounds 4 and 5, and then left untreated (control) or treated for 48 h with 50 U/mL IFNγ. The expression level of MHC-II and CD40 was evaluated by flow cytometry as described.^21-23

[3] = system: MB49 cells; assay: Relative cell viability of MB49 cells 24-hour post treatment; format: cell-based, murine; conditions: 3 h treatment, 0-50 μM
Protocol: (§1) Evaluation of cell proliferation by the MTT assay. […] Cells were pretreated for a period of 3 h with vehicle (DMSO) or derivatives 1 and 1A at 0, 10, 25, 37.5, and 50 μM, and then incubated for 24 h in the absence or the presence of INFγ and TNFα. At the end of the culture period, 10 μL of 5 mg/mL methylthiazolyldiphenyl-tetrazolium bromide (MTT) solution was added to each well. After a 3-h incubation period with MTT reagent, 100 μL of MTT solubilization buffer (10% SDS in 10 mM HCl) was added and plates were placed overnight in the cell incubator before absorbance measure. The optical density was read at 580 nm using the Microplate Reader Manager (from Bio-Rad Laboratories).

[4] = system: MB49-I cells; assay: Relative cell viability of MB49-I cells 24-hour post treatment; format: cell-based, murine; conditions: 3 h treatment, 0-50 μM
Protocol: as §1

[5] = system: NFκB; assay: NFκB-responsive luciferase assay in MB49-I cells; format: cell-based, murine; conditions: 50 μM
Excerpt: Luciferase assay. To assess the transcriptional activity of NFκB in response to TNFα, MB49-I cells cultured in monolayers (7.5×10^4 cells/well in 24-well plates) were transiently transfected with an expression vector allowing the transcription of the firefly luciferase reporter gene under the control of CMV promoter and tandem repeats of the NFκB transcriptional response element. The luciferase gene encodes a 61-kDa enzyme that oxidizes D-luciferin in the presence of ATP, oxygen, and Mg^++, yielding a […] product that can be quantified by measuring the released light. Transfection was performed using Opti-MEM reduced serum media and Lipofectamine 2000 (Thermo Fisher Scientific). Then, MB49-I cells were pretreated for 30 min with vehicle (DMSO) and compound 4 (at 10 μM or 30 μM); and then washed and recovered after 24 h of activation with 10 ng/mL or 50 ng/mL TNFα. Cell lysates were mixed with Luciferase assay reagent (a mixture of luciferine, coenzyme A, ATP and Mg^2+) and the light produced was measured using a luminometer.

[6] = system: human UBC T24 cells; assay: Microinvasion assay (matrigel in Boyden chamber), M1-induced T24 cell invasion; format: cell-based
Protocol: Microinvasion assays. Invasion was measured by assessment of human UBC T24 cell migration rate through an artificial basement membrane in a modified Boyden chamber (HTS Transwell System). Briefly, the membrane consisted of a polycarbonate filter with 0.4 μm pores diameter and was coated on ice with Matrigel (BD Biosciences) diluted 1:2 (v/v) in serum-free culture media. T24 cells (50×10^3 cells) were seeded into the Matrigel coat in the upper well of the chamber, while polarized M1 macrophages (50×10^3 cells) were seeded in the lower well. The polycarbonate filter with 0.4 μm pores diameter is too small to left the cells move to the bottom of the lower wells. Thus, non-invading cells into the matrigel coat were removed and cells that migrated down to the polycarbonate filter were stained with Hoescht 33258 dye after a 48-h incubation period, visualized by fluorescence microscopy and counted.

[7] = system: MB49-I tumors; assay: Orthotopic UBC model, MB49-I tumors implanted in the bladder of female mice; format: in vivo; conditions: i.p. biweekly at 150 μM during two weeks
Protocol: Orthotopic UBC model. Female C57BL/6J mice (6-8 weeks old), each weighing 15-18 g, were anesthetized and a 24-gauge Teflon catheter was introduced into the bladder lumen through the urethra. To prepare the bladder for tumor implantation, a point lesion was induced in the bladder wall by electrocauterization. Then, 1×10^5 of MB49-I cells in 100 μl of PBS were instilled into the bladder. When indicated, control mice were electrocauterized and PBS was instilled into the bladder. Syringes containing the cell suspension were maintained into the catheter for 20 min to allow cell attachment to the bladder wall.^24,27

[8] = system: MB49-I cells; assay: LPS/IFNγ-induced NO production in MB49-I cells; format: cell-based, murine; conditions: compound 4 at 30 μM, compound 12 at 10, 20, 37.5 and 50 μM
Protocol: Evaluation of NO and Urea production by chemical methods. The MB49-I cells and the J774A.1 cells (25×10^3 cells/well) were grown and pretreated, as indicated, with various anti-inflammatory derivatives, precursors and mono-functional derivatives for a period of 3 h. […] NO production was measured using the Griess reagent method as previously described.^27 This method involves the detection of nitrite ions (NO2^−) formed by the spontaneous oxidation of NO under physiological conditions. According the manufacture procedure (Life Technologies; # G-7921), equal volumes of sulfanilic acid and N-(1-naphthyl)ethylenediamine are mixed together to form the Griess reagent. In the presence of NO2^−, sulfanilic acid is converted to a diazonium salt, which in turn is coupled to N-(1-naphthyl)ethylenediamine to produce a pink coloration that is measured with a spectrophotometer (Biotek, synergy HT) at 548 nm. In the same manner, urea synthesis through arginase-1 activity was measured using commercially available kit.

[9] = system: IκB / NFκB signaling pathway; assay: Western blot of phosphorylated IκB in LPS-activated RAW 264.7 cells; format: cell-based, murine; conditions: 90 min pretreatment at 20 and 37.5 μM, 100 ng/mL LPS 15 min

## CC(C)(C)OC(=O)NNC(=O)c1ccc(N2C(=O)C=CC2=O)cc1 [Compound 4, N′-[4-(2,5-dioxo-2,5-dihydro-pyrrol-1-yl)-benzoyl]-hydrazine carboxylic acid tert-butyl ester]
[1]
  IL6-induced STAT3 activation (ratio of phosphorylated/no phosphorylated proteins): decreased; also recorded: efficiently inhibited
[2]
  IFNγ-induced CD40 expression: effective in reducing; also recorded: efficiently inhibited
[3]
  relative cell viability / cell survival: stopping cell proliferation
[4]
  relative cell viability / cell survival: stopping cell proliferation
[5]
  NFκB activation (luciferase assay): efficiently inhibited
[6]
  M1-induced human UBC T24 cell invasion: efficiently inhibited
[7]
  development of muscle-invasive MB49-I tumors in the bladder: stopped; also recorded: completely abolished
[8]
  LPS/IFNγ-induced NO synthesis: inhibitory effect
[9]
  LPS-activated NFκB signaling pathway (ratio p-IkB/IkB): efficient to inhibit
